Some test systems named below: 786-0; A498; A549; CAKI-1; HCT-15; M14; MCF7; MDA-MB-231; MDA-N; NCI-H226; NCI-H23; OVCAR-3; RXF 393; SK-MEL-2; SK-MEL-5; SN12C; SR; U-251; UACC-62; UO-31.
Common to all, as to experiment: NCI-60 cell line screen, 48 h

The source of these data is ChEMBL document CHEMBL1201862, “PubChem BioAssay data set” (2004).

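All cell lines were grown in 96-well plates and treated with compound for 48 hours. The concentration for 50% growth inhibition is given as GI50.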 Activity calls are given as the source filed them. Cut-off read from the data, not from the text of the source: active = GI50 up to about 1.1 µM and inactive = higher. A value given as a limit tells only on which side of the number the result lay.

Take `COc1ccc(NC(=O)CC(=O)n2nc(-c3ccccc3)c(/N=N/c3ccccc3C)c2-c2ccccc2)cc1`: the GI50 with 786-0 is 18.5 µM (inactive); in the assay on A498, 21.5 µM (inactive); in the assay with A549, 23.6 µM (inactive); with CAKI-1, 17.3 µM (inactive); in the assay with HCT-15, 35.5 µM; in the assay on M14, 40.9 µM (inactive). The GI50 in the assay with MCF7 was 35.3 µM (inactive); in the assay with MDA-MB-231, 71 µM (inactive); in the assay on MDA-N it was > 100 µM (inactive); in the assay with NCI-H226, 26 µM (inactive); in the assay with NCI-H23, 22.1 µM (inactive); with OVCAR-3 it was 17.3 µM (inactive). Further, the GI50 with RXF 393 was 17.3 µM (inactive); in the assay with SK-MEL-2, 18.2 µM (inactive); in the assay with SK-MEL-5 it was 40.2 µM (inactive); with SN12C, 53.6 µM (inactive); in the assay with SR, 35.9 µM (inactive); with U-251, 16.4 µM (inactive). Also, the GI50 is 19.2 µM (inactive) in the assay on UACC-62 and 35.6 µM (inactive) with UO-31.
With `Cc1cn(C2CC(N=[N+]=[N-])C(C(=O)O)O2)c(=O)[nH]c1=O` (stereo not given), the GI50 in the assay on 786-0 is > 100 µM (inactive); with A498, > 100 µM (inactive); in the assay with A549, > 100 µM (inactive); in the assay with CAKI-1 it was > 100 µM (inactive); in the assay with HCT-15 it was > 100 µM; with M14, > 100 µM (inactive). The GI50 with MCF7, with MDA-MB-231, in the assay with MDA-N, in the assay with NCI-H226, in the assay on NCI-H23 and in the assay on OVCAR-3 was > 100 µM (inactive) throughout. Besides, the GI50 is > 100 µM (inactive) in the assay on RXF 393; > 100 µM (inactive) in the assay on SK-MEL-2; < 0.01 µM (active) in the assay on SK-MEL-5; > 100 µM (inactive) with SN12C; > 100 µM (inactive) in the assay on SR; > 100 µM (inactive) in the assay with U-251. Further, the GI50 in the assay with UACC-62 and in the assay on UO-31 was > 100 µM (inactive) each time.
For the compound `CCOC(=O)N1C/C(=C\c2ccccc2)C(=O)/C(=C/c2ccccc2)C1`, the GI50 with 786-0 is 2.9 µM (inactive); in the assay on A498, 18 µM (inactive); with A549 it was 12.3 µM (inactive); with CAKI-1, 2.22 µM (inactive); in the assay on HCT-15, 2.32 µM; in the assay with M14 it was 2.77 µM (inactive). Also, the GI50 in the assay on MCF7 was 0.955 µM (active); in the assay with MDA-MB-231, 2.24 µM (inactive); with MDA-N, 1.72 µM (inactive); in the assay on NCI-H226, 4.56 µM (inactive); with NCI-H23 it was 5.31 µM (inactive); in the assay on OVCAR-3, 4.23 µM (inactive). The GI50 with RXF 393 was 4.01 µM (inactive); in the assay with SK-MEL-2, 6.7 µM (inactive); in the assay on SK-MEL-5, 2.97 µM (inactive); in the assay on SN12C it was 2.17 µM (inactive); in the assay with SR, 0.873 µM (active); with U-251, 1.45 µM (inactive). For the same compound, the GI50 with UACC-62 was 2.66 µM (inactive); in the assay with UO-31 it was 5.85 µM (inactive).
Regarding `CC1C(C#N)(C#N)C(C#N)=C(N)C1(Cl)[N+](=O)[O-]` (stereo not given), the GI50 with 786-0 is 5.48 µM (inactive); in the assay on A498 it was 17.4 µM (inactive); with A549, 21.7 µM (inactive); in the assay with CAKI-1, 5.4 µM (inactive); with HCT-15, 3.39 µM; in the assay on M14, 5.07 µM (inactive). Moreover, the GI50 was 17.2 µM (inactive) with MCF7; 13.2 µM (inactive) with MDA-MB-231; 9.04 µM (inactive) in the assay on MDA-N; 17.1 µM (inactive) in the assay on NCI-H226; 18.7 µM (inactive) in the assay with NCI-H23; 10 µM (inactive) in the assay with OVCAR-3. Further, the GI50 was 4.33 µM (inactive) in the assay with RXF 393; 25.6 µM (inactive) with SK-MEL-2; 12.1 µM (inactive) in the assay with SK-MEL-5; 8.18 µM (inactive) in the assay on SN12C; 5.01 µM (inactive) with SR; 17.1 µM (inactive) with U-251. Moreover, the GI50 with UACC-62 was 11.4 µM (inactive); in the assay on UO-31, 15.5 µM (inactive).
As for `O=C(CCC1CCCCC1)NCc1ccc(C(=O)O)cc1`, the GI50 in the assay on 786-0 is > 100 µM (inactive); in the assay with A498 it was > 100 µM (inactive); in the assay on A549 it was > 100 µM (inactive); with CAKI-1, > 100 µM (inactive); with HCT-15, > 100 µM; in the assay on M14, > 100 µM (inactive). The GI50 in the assay with MCF7, with MDA-MB-231, in the assay with MDA-N, in the assay with NCI-H226, in the assay with NCI-H23 and with OVCAR-3 was > 100 µM (inactive) in each case. The GI50 with RXF 393, with SK-MEL-2, in the assay with SK-MEL-5, in the assay on SN12C, in the assay with SR and in the assay with U-251 was > 100 µM (inactive) each time. Besides, the GI50 with UACC-62 and in the assay with UO-31 was > 100 µM (inactive) throughout.
Consider `Clc1ccc(CNc2nc(Cl)c3nc[nH]c3n2)cc1Cl`, for which the GI50 in the assay with 786-0 is 27.7 µM (inactive); with A498, 11.1 µM (inactive); in the assay on A549, 23.1 µM (inactive); in the assay with CAKI-1 it was 23.2 µM (inactive); in the assay with HCT-15, 27 µM; with M14 it was 20.8 µM (inactive). Further, the GI50 in the assay with MCF7 was 18 µM (inactive); in the assay with MDA-MB-231, 30.8 µM (inactive); with MDA-N it was 26.4 µM (inactive); in the assay with NCI-H226, 21.9 µM (inactive); with NCI-H23 it was 22.4 µM (inactive); in the assay with OVCAR-3, 18.9 µM (inactive). For the same compound, the GI50 with RXF 393 was 30.9 µM (inactive); in the assay on SK-MEL-2 it was 22.3 µM (inactive); in the assay on SK-MEL-5, 16.7 µM (inactive); in the assay with SN12C, 21.6 µM (inactive); with SR, 26.5 µM (inactive); with U-251 it was 36.2 µM (inactive). The GI50 with UACC-62 is 11.2 µM (inactive); in the assay on UO-31, 11.4 µM (inactive).
With `C[C@H](CCC(=O)O)[C@H]1CC[C@@]2(C)[C@@H]3C(=O)C[C@H]4C(C)(C)[C@@H](O)CC[C@]4(C)[C@H]3C(=O)C[C@]12C`, the GI50 in the assay on 786-0 is > 100 µM (inactive); in the assay on A498 it was > 100 µM (inactive); in the assay with A549, > 100 µM (inactive); in the assay on CAKI-1, > 100 µM (inactive); in the assay with HCT-15, > 100 µM; in the assay with M14, > 100 µM (inactive). For the same compound, the GI50 in the assay with MCF7, in the assay with MDA-MB-231, in the assay with MDA-N, with NCI-H226, with NCI-H23 and in the assay with OVCAR-3 was > 100 µM (inactive) each time. Besides, the GI50 in the assay with RXF 393, with SK-MEL-2, with SK-MEL-5, in the assay on SN12C, in the assay with SR and in the assay with U-251 was > 100 µM (inactive) each time. For the same compound, the values for the GI50 with UACC-62 and with UO-31 were > 100 µM (inactive) and 13.9 µM (inactive), respectively.
For the compound `O=C1NCN(c2ccccc2)C12CCN(CC1COc3ccccc3O1)CC2` (stereo not given) [SPIROXATRINE], the GI50 in the assay on 786-0 is 31.6 µM (inactive); in the assay on A498 it was 71.6 µM (inactive); in the assay on A549, > 100 µM (inactive); with CAKI-1, 39.8 µM (inactive); in the assay with HCT-15, > 100 µM; in the assay with M14, > 100 µM (inactive). Moreover, the GI50 with MCF7 was > 100 µM (inactive); in the assay with MDA-MB-231 it was 59.7 µM (inactive); with MDA-N it was > 100 µM (inactive); with NCI-H226 it was 49.9 µM (inactive); in the assay on NCI-H23 it was 44.3 µM (inactive); in the assay on OVCAR-3 it was 28.6 µM (inactive). Moreover, the GI50 with RXF 393 was 29.9 µM (inactive); with SK-MEL-2, 38.4 µM (inactive); with SK-MEL-5, > 100 µM (inactive); in the assay with SN12C, > 100 µM (inactive); with SR, > 100 µM (inactive); in the assay with U-251 it was 31.3 µM (inactive). In addition, the values for the GI50 in the assay with UACC-62 and in the assay on UO-31 were > 100 µM (inactive) and 50.7 µM (inactive), respectively.
